Assay: logP by HPLC on reverse-phase column (EEC Directive 79/831 Annex V.A8)
Format: physicochemical
Conditions: HPLC-MS
Procedure: The logP values reported in the above Tables and Preparation Examples were determined according to EEC Directive 79/831 Annex V.A8 by HPLC (High Performance Liquid Chromatography) on a reverse-phase column (C18). Temperature 43° C.
With `O=C(/C=C/c1ccc(NC(=O)c2cccnc2Cl)cc1)NC(c1cc(Cl)cc(Cl)c1)C(F)(F)F` (centres unmarked) [Ia-2] the logP was “HPLC-MS: logP = 3.69; mass”.
For `CC(=O)Nc1ccc(/C=C/C(=O)NC(c2cccc(C(F)(F)F)c2)C(F)(F)F)cc1` (centres unmarked) [Ia-3], the logP was “HPLC-MS: logP = 2.95; mass”.
With `O=C(/C=C/c1cccc(NC(=O)C2CC2)c1)NC(c1cccc(C(F)(F)F)c1)C(F)(F)F` (centres unmarked) [Ia-4] the logP was “HPLC-MS: logP = 3.42; mass”.
In the case of `O=C(/C=C/c1ccc(NC(=O)CC(F)(F)F)cc1)NC(c1cccc(C(F)(F)F)c1)C(F)(F)F` (centres unmarked) [Ia-6], the logP is reported as “HPLC-MS: logP = 3.43; mass”.
In the case of `O=C(/C=C/c1ccc(-n2cncn2)c([N+](=O)[O-])c1)NC(c1cccc(C(F)(F)F)c1)C(F)(F)F` (centres unmarked) [Ia-9], the logP is reported as “HPLC-MS: logP = 3.11; mass”.
With `N#Cc1cc(/C=C/C(=O)NC(c2cccc(C(F)(F)F)c2)C(F)(F)F)ccc1-n1cncn1` (centres unmarked) [Ia-10] the logP was “HPLC-MS: logP = 2.99; mass”.
For `Cc1cc(/C=C/C(=O)NC(c2cccc(C(F)(F)F)c2)C(F)(F)F)ccc1C(=O)NC1CC1` (centres unmarked) [Ia-11], the logP was “HPLC-MS: logP = 3.02; mass”.
For `Cc1cc(/C=C/C(=O)NC(c2cc(Cl)cc(Cl)c2)C(F)(F)F)ccc1C(=O)NC1CC1` (centres unmarked) [Ia-12], the logP was “HPLC-MS: logP = 3.33; mass”.
With `N#Cc1cc(/C=C/C(=O)NC(c2cccc(F)c2)C(F)(F)F)ccc1-n1cncn1` (centres unmarked) [Ia-13] the logP was “HPLC-MS: logP = 2.61; mass”.
In the case of `N#Cc1cc(/C=C/C(=O)NC(c2ccc(C(F)(F)F)cc2)C(F)(F)F)ccc1-n1cncn1` (centres unmarked) [Ia-14], the logP is reported as “HPLC-MS: logP = 3.08; mass”.
For `N#Cc1cc(/C=C/C(=O)NC(c2cc(Cl)cc(Cl)c2)C(F)(F)F)ccc1-n1cncn1` (centres unmarked) [Ia-16], the logP was “HPLC-MS: logP = 3.33; mass”.
For `Cc1cc(/C=C/C(=O)NC(c2cc(Cl)cc(Cl)c2)C(F)(F)F)ccc1C(=O)NCC(F)(F)F` (centres unmarked) [Ia-20], the logP was “HPLC-MS: logP = 3.90; mass”.
For `COC(=O)c1ccc(/C=C/C(=O)NC(c2cccc(C(F)(F)F)c2)C(F)(F)F)cc1C` (centres unmarked) [Ia-26], the logP was “HPLC-MS: logP = 4.09; mass”.
In the case of `O=C(/C=C/c1ccc(C(=O)NCc2ccccn2)c(C(F)(F)F)c1)NC(c1cccc([N+](=O)[O-])c1)C(F)(F)F` (centres unmarked) [Ia-33], the logP is reported as “HPLC-MS: logP = 2.93; mass”.
For `O=C(/C=C/c1ccc(C(=O)NCc2ccccn2)c(C(F)(F)F)c1)NC(c1ccc([N+](=O)[O-])cc1)C(F)(F)F` (centres unmarked) [Ia-34], the logP was “HPLC-MS: logP = 2.93; mass”.
With `O=C(/C=C/c1ccc(C(=O)NCc2ccccn2)c(C(F)(F)F)c1)NC(c1c(F)cccc1F)C(F)(F)F` (centres unmarked) [Ia-35] the logP was “HPLC-MS: logP = 2.46; mass”.
With `O=C(/C=C/c1ccc(C(=O)NC2CC2)c(C(F)(F)F)c1)NC(c1c(F)cccc1F)C(F)(F)F` (centres unmarked) [Ia-38] the logP was “HPLC-MS: logP = 2.89; mass”.
With `Cc1cc(/C=C/C(=O)NC(c2cc(Cl)cc(C(F)(F)F)c2)C(F)(F)F)ccc1C(=O)NC1CC1` (centres unmarked) [Ia-39] the logP was “HPLC-MS: logP = 3.47; mass”.
For `O=C(/C=C/c1ccc(C(=O)Nc2cccnc2)c(C(F)(F)F)c1)NC(c1cccc(C(F)(F)F)c1)C(F)(F)F` (centres unmarked) [Ia-53], the logP was “HPLC-MS: logP = 2.76; mass”.
With `COC(=O)c1ccc(C(NC(=O)/C=C/c2ccc(C(=O)NC3CC3)c(C(F)(F)F)c2)C(F)(F)F)cc1C(F)(F)F` (centres unmarked) [Ia-81] the logP was “HPLC-MS: logP = 3.09; mass”.
For `CCOC1(NC(=O)c2ccc(/C=C/C(=O)NC(c3cccc(C(F)(F)F)c3)C(F)(F)F)cc2C)CC1` (centres unmarked) [Ia-85], the logP was “HPLC-MS: logP = 3.27 mass”.
With `Cc1cc(/C=C/C(=O)NC(c2cccc(C(F)(F)F)c2)C(F)(F)F)ccc1C(=O)N(C)C1CC1` (centres unmarked) [Ia-116] the logP was “HPLC-MS: logP = 3.37 mass”.
In the case of `O=C(/C=C/c1ccc(S(=O)(=O)NC2CC2)cc1)NC(c1cccc(C(F)(F)F)c1)C(F)(F)F` (centres unmarked) [Ia-117], the logP is reported as “HPLC-MS: logP = 3.33; mass”.
With `O=C(/C=C/c1ccc(C(=O)NC2CC2)c(Cl)c1)NC(c1cccc(C(F)(F)F)c1)C(F)(F)F` (centres unmarked) [Ia-118] the logP was “HPLC-MS: logP = 3.24; mass”.
With `O=C(/C=C/c1ccc(C(=O)Nc2cccc(Cl)n2)c(C(F)(F)F)c1)NC(c1cccc(C(F)(F)F)c1)C(F)(F)F` (centres unmarked) [Ia-120] the logP was “HPLC-MS: logP = 4.33; mass”.
In the case of `O=C(/C=C/c1ccc(C(=O)NCc2ncccn2)c(Br)c1)NC(c1cccc(C(F)(F)F)c1)C(F)(F)F` (centres unmarked) [Ia-133], the logP is reported as “HPLC-MS: logP = 2.93; mass”.
For `CC(NC(=O)c1ccc(/C=C/C(=O)NC(c2cccc(C(F)(F)F)c2)C(F)(F)F)cc1C(F)(F)F)C1(Cl)CC1` (centres unmarked) [Ia-171], the logP was “HPLC-MS: logP = 4.18; mass”.
With `CC(CF)NC(=O)c1ccc(/C=C/C(=O)NC(c2cccc(C(F)(F)F)c2)C(F)(F)F)cc1Br` (centres unmarked) [Ia-173] the logP was “HPLC-MS: logP = 3.35; mass”.
With `O=C(/C=C/c1ccc(C(=O)NCc2nccs2)c(Br)c1)NC(c1cccc(C(F)(F)F)c1)C(F)(F)F` (centres unmarked) [Ia-177] the logP was “HPLC-MS: logP = 3.14; mass”.
In the case of `CC(C)C(C#N)NC(=O)c1ccc(/C=C/C(=O)NC(c2cccc(C(F)(F)F)c2)C(F)(F)F)cc1Cl` (centres unmarked) [Ia-182], the logP is reported as “HPLC-MS: logP = 3.68; mass”.
With `O=C(/C=C/c1ccc(C(=O)Nc2nccs2)c(Cl)c1)NC(c1cccc(C(F)(F)F)c1)C(F)(F)F` (centres unmarked) [Ia-185] the logP was “HPLC-MS: logP = 3.51; mass”.
With `Cn1ccc(CNC(=O)c2ccc(/C=C/C(=O)NC(c3cccc(C(F)(F)F)c3)C(F)(F)F)cc2Cl)n1` (centres unmarked) [Ia-186] the logP was “HPLC-MS: logP = 2.95; mass”.
With `O=C(/C=C/c1ccc(C(=O)Nc2cccnn2)c(Cl)c1)NC(c1cccc(C(F)(F)F)c1)C(F)(F)F` (centres unmarked) [Ia-217] the logP was “HPLC-MS: logP = 3.29; mass”.
With `COC(=O)c1ccc(NC(=O)c2ccc(/C=C/C(=O)NC(c3cccc(C(F)(F)F)c3)C(F)(F)F)cc2Cl)nc1` (centres unmarked) [Ia-218] the logP was “HPLC-MS: logP = 3.92; mass”.
In the case of `O=C(/C=C/c1ccc(C(=O)NC2C[S+]([O-])C2)c(C(F)(F)F)c1)NC(c1cccc(C(F)(F)F)c1)C(F)(F)F` (centres unmarked) [Ia-227], the logP is reported as “HPLC-MS: logP = 2.71; mass”.
For `O=C(/C=C/c1ccc(C(=O)Nc2ccc(Cl)nn2)c(Cl)c1)NC(c1cccc(C(F)(F)F)c1)C(F)(F)F` (centres unmarked) [Ia-228], the logP was “HPLC-MS: logP = 3.7; mass”.
In the case of `O=C(/C=C/c1ccc(C(=O)NC2CC2)c(C(F)(F)F)c1)NC(c1cccc(F)c1)C(F)(F)F` (centres unmarked) [Ia-230], the logP is reported as “HPLC-MS: logP = 2.95; mass”.
With `O=C(/C=C/c1ccc(C(=O)NC2CC2)c(C(F)(F)F)c1)NC(c1cccc(Cl)c1)C(F)(F)F` (centres unmarked) [Ia-231] the logP was “HPLC-MS: logP = 3.22; mass”.
For `Cc1cccc(C(NC(=O)/C=C/c2ccc(C(=O)NC3CC3)c(C(F)(F)F)c2)C(F)(F)F)c1` (centres unmarked) [Ia-232], the logP was “HPLC-MS: logP = 3.17; mass”.
In the case of `O=C(/C=C/c1ccc(C(=O)NC2CC2)cc1Cl)NC(c1cccc(C(F)(F)F)c1)C(F)(F)F` (centres unmarked) [Ia-233], the logP is reported as “HPLC-MS: logP = 3.46; mass”.
With `O=C(/C=C/c1ccc(C(=O)NC2CC2)cc1Cl)NC(c1cccc(Cl)c1)C(F)(F)F` (centres unmarked) [Ia-234] the logP was “HPLC-MS: logP = 3.3; mass”.

Same assay, conditions: pH 2.7
Compound `O=C(O)/C=C/c1ccc(C(=O)NCc2ccccc2)c(C(F)(F)F)c1` [(2E)-3-[4-(Phenylmethyl)carbamoyl)-3-trifluoromethylphenyl]acrylic acid] has a logP of 2.12.
Compound `O=C(O)/C=C/c1ccc(C(=O)Nc2ccccn2)c(C(F)(F)F)c1` [(2E)-3-[4-(Pyridin-2-yl)carbamoyl)-3-trifluoromethylphenyl]acrylic acid] has a logP of 1.69.
`O=C(O)/C=C/c1ccc(C(=O)NCc2ccccn2)c(C(F)(F)F)c1` [(2E)-3-[4-(Pyridin-2-ylmethyl)carbamoyl)-3-trifluoromethylphenyl]acrylic acid] gave a logP of 0.91.

Same assay, conditions: reverse-phase C18 HPLC column, pH 2.7, HPLC, C18 reverse phase, 43° C., acidic range pH 2.7, calibration with alkan-2-ones
Compound `N#Cc1cc(/C=C/C(=O)O)ccc1-n1cncn1` [(2E)-3-[3-Cyano-4-(1H-1,2,4-triazol-1-yl)phenyl]acrylic acid] has a chromatographic logP of 0.97.
For `NCc1ccc(/C=C/C(=O)NC(c2cccc(C(F)(F)F)c2)C(F)(F)F)cc1C(F)(F)F` (centres unmarked) [(2E)-3-[4-(Aminomethyl)-3-(trifluoromethyl)phenyl]-N-{2,2,2-trifluoro-1-[3-(trifluoro-methyl)phenyl]ethyl}acrylamide], the chromatographic logP was 1.61.
Compound `Cc1cc(/C=C/C(=O)O)ccc1C(=O)NC1CC1` [(2E)-3-[4-(Cyclopropylcarbamoyl)-3-methylphenyl]acrylic acid] has a chromatographic logP of 1.14.
For `O=C(O)/C=C/c1ccc(C(=O)NC2CC2)c(C(F)(F)F)c1` [(2E)-3-[4-(Cyclopropylcarbamoyl)-3-trifluoromethylphenyl]acrylic acid], the chromatographic logP was 1.34.
For `N/C(=N\O)c1ccc(/C=C/C(=O)NC(c2cccc(C(F)(F)F)c2)C(F)(F)F)cc1C(F)(F)F` (centres unmarked) [(2E)-3-[4-(N′-Hydroxycarbamimidoyl)-3-(trifluoromethyl)phenyl]-N-{2,2,2-trifluoro-1-[3-(trifluoromethyl)phenyl]ethyl}acrylamide], the chromatographic logP was 2.55.
For `CC(C)(C)OC(=O)NCc1ccc(/C=C/C(=O)O)cc1C(F)(F)F` [(2E)-3-[4-{[tert-Butoxycarbonyl)amino]methyl}-3-(trifluoromethyl)phenyl]acrylic acid], the chromatographic logP was 2.67.
For `O=C(O)/C=C/c1cc(C(F)(F)F)c(C(=O)NC2CC2)cn1` [(2E)-3-[5-(Cyclopropylcarbamoyl)-4-(trifluoromethyl)pyridin-2-yl]acrylic acid], the chromatographic logP was 1.26.
Compound `CC(C)(C)OC(=O)NC1CCc2cc(/C=C/C(=O)O)ccc21` (centres unmarked) [(2E)-3-{1-[(tert-Butoxycarbonyl)amino]-2,3-dihydro-1H-inden-5-yl}acrylic acid] has a chromatographic logP of 2.47.
Compound `CCOC(=O)c1cc(I)c(N)cc1Cl` [Ethyl 4-amino-2-chloro-5-iodobenzoate] has a chromatographic logP of 2.95.
`CCOC(=O)c1cc2cc(C(=O)NC(c3cccc(C(F)(F)F)c3)C(F)(F)F)n(C)c2cc1Cl` (centres unmarked) [Ethyl 6-chloro-1-methyl-2-({2,2,2-trifluoro-1-[3-(trifluoromethyl)phenyl]ethyl}carbamoyl)-1H-indole-5-carboxylate] gave a chromatographic logP of 4.74.
`CCOC(=O)c1cc2cc(C(=O)NC(c3cccc(C(F)(F)F)c3)C(F)(F)F)[nH]c2cc1Cl` (centres unmarked) [Ethyl 6-chloro-2-({2,2,2-trifluoro-1-[3-(trifluoromethyl)phenyl]ethyl}carbamoyl)-1H-indole-5-carboxylate] showed a chromatographic logP of 4.12.
In the case of `CN(C(=O)/C=C/c1ccc(C#N)cc1)C(c1cccc(C(F)(F)F)c1)C(F)(F)F` (centres unmarked) [Ia-25, (2E)-3-(4-Cyanophenyl)-N-methyl-N-{2,2,2-trifluoro-1-[3-(trifluoromethyl)phenyl]-ethyl}acrylamide], the chromatographic logP is reported as 4.01.

From patent publication US8889878B2, “Haloalky-substituted amides as insecticides and acaricides” (Bayer CropScience AG, priority 2009, dated 2014)
